Assay results taken from BindingDB's records for doi:10.7270/Q2D798VP (Broad Institute, 2009).

Target: T1, Zinc finger protein mex-5 (Caenorhabditis elegans, UniProt Q9XUB2)
T1 sequence (Q9XUB2 whole entry): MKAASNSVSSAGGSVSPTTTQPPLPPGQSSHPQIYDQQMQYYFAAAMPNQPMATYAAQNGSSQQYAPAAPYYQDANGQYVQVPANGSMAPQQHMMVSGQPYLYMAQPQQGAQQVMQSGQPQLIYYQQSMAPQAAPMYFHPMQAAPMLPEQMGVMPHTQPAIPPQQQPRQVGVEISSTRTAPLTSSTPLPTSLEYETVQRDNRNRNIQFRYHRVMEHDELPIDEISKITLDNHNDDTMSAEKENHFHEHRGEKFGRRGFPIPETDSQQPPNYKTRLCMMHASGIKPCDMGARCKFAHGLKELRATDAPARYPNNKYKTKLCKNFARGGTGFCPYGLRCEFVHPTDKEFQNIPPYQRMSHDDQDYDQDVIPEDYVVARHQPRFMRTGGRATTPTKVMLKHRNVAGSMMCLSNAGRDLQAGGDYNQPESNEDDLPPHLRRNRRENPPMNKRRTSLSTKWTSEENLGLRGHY
Assay: potency of MEX-5 RNA-binding blockers – biochemical, C. elegans, fluorescence polarization, dose response (AID 1960)

SMILES | EC50 [µM]
CC1=NC(c2ccccc2)C(C#N)(C#N)C(C#N)(C#N)C1 (stereo not given) [SMR000037705] | 2.46
COc1cc(OC)c(C2C3=C(CC(C)(C)CC3=O)OC(=N)C2C#N)cc1OC (stereo not given) [SMR000054706] | > 300
C=c1[nH]n(-c2cccc(C(=O)O)c2)c(=O)c1=CC=Cc1ccco1 [SMR000113614] | 23.7
COc1ccc(C=C2CCCC(C(=O)C(F)(F)F)C2=O)cc1 (stereo not given) [SMR000142699] | 41.4
Oc1ccc2ccccc2c1CN=Nc1nnc(-c2ncc[nH]2)c2ccccc12 [SMR000151639] | 2.45
C(=NNC(=Nc1ccccc1)c1ccccn1)c1ccccn1 [SMR000174637] | 94.4
CN1CCC2(CC1)C(C#N)C(=N)NC(=S)C2C#N (stereo not given) [SMR000211480] | 8.53
O=C(c1ccccc1)c1[nH]n(-c2ccccc2)c2c(O)n(-c3ccccc3Cl)c(=O)c1-2 [SMR000212371] | > 300
COc1ccc(N=CCC(=O)c2ccc(C)cc2)cc1OC [SMR000269732] | > 300
CCCCN1C(=O)/C(=C2/Sc3ccccc3N2C)SC1=Nc1nnc[nH]1 [SMR000282142] | 39.1
COC(=O)c1ccc(-n2c(C)cc(CN=Nc3nc(C)cc(=O)[nH]3)c2C)cc1 [SMR000364461] | > 300
O=C(N/N=C/C1C=C(Cl)C=C([N+](=O)[O-])C1=O)c1ccccc1NS(=O)(=O)c1cccs1 (stereo not given) [SMR000364876] | 1.56
Cc1cc(C(=O)NN=CC2C=C(Cl)C=C([N+](=O)[O-])C2=O)[nH]n1 (stereo not given) [SMR000414694] | > 300
O=C1NC(=O)N(CCc2ccccc2)C(=O)C1=CNNC(=O)c1ccccc1 [SMR000433912] | 150
Cn1c(=O)[nH]c(=O)c2c1nc(N=NC=C(Br)Cc1ccccc1)n2CCO [SMR000436442] | 55.5
COc1ccccc1N1C(=O)NC(=O)C(=Cc2c[nH]c3ccccc23)C1=O [SMR000495900] | > 300
Cc1cc(-c2ccccc2)nc(N=NCc2ccc(O)cc2O)n1 [SMR000513422] | 54
Cc1[nH]n(C(N)=S)c(=O)c1N=Nc1c(Cl)cc([N+](=O)[O-])cc1Cl [SMR000514008] | 85.9
CC1(C)CC(=O)C2=C(C1)OC(=N)C(C#N)C2c1ccc2c(c1)OCO2 (stereo not given) [SMR000514966] | > 300
O=C1C=CC(/C=C/c2nc(O)c([N+](=O)[O-])c(=O)[nH]2)C=C1O (stereo not given) [SMR000524347] | 179
c1ccc(C2=NNC(c3ccccn3)N=N2)nc1 (stereo not given) [SMR000549436] | 22.4
CN(C)c1ccc(C=NN(CCC(=O)NC(C)(C)C)C2=NS(=O)(=O)c3ccccc32)cc1 [SMR000556213] | 36.3
O=C1NC(=O)N(c2ccc(F)cc2)C(=O)C1=Cc1c[nH]c2ccccc12 [SMR000556295] | > 300
Cn1cc(C=C2C(=O)NC(=O)N(c3ccccc3)C2=O)c2ccccc21 [SMR000559087] | 4.34
O=C1N=C(N2C=CC(c3ccncc3)C=C2)C(=CN=NC(=O)c2ccccc2O)S1 [SMR000646350] | 10.7
CN(C)[C@@H]1C(=O)C(C(N)=O)C(=O)[C@@]2(O)C(=O)C3C(=O)c4c(O)cccc4[C@@](C)(O)C3C(O)C12 (stereo not given in full) [SMR000875333] | 20.5
C=CC(=O)N1CCCC(n2nc(-c3ccc(Oc4ccccc4)cc3)c3c(N)ncnc32)C1 (stereo not given) [US8497277, 4] | > 300
COC(=O)Cn1cc(C=C2C(=O)NC(=O)N(c3ccccc3)C2=O)c2ccccc21 [[3-(2,4,6-Trioxo-1-phenyl-tetrahydro-pyrimidin-5-ylidenemethyl)-indol-1-yl]-acetic acid methyl ester] | 143
CCOC(=O)c1c(NC=C2C(=O)NC(=S)NC2=O)sc(C)c1C [ethyl 2-[[4,6-bis(oxidanylidene)-2-sulfanylidene-1,3-diazinan-5-yl]methylideneamino]-4,5-dimethyl-thiophene-3-carboxylate] | > 300
COC(=O)c1[nH]c2cc(OC)c(OC)cc2c1CN=Nc1ccccc1 [methyl (3Z)-5,6-dimethoxy-3-[(2-phenylhydrazinyl)methylidene]indole-2-carboxylate] | 20.3
